Results from paper PMC11740121 (ACS Omega, 2025).

Target: PRMT5 (protein arginine methyltransferase 5) (Homo sapiens, UniProt O14744)
Experiment: SPR with immobilized PRMT5 N-terminal TIM barrel
Format: binding

Sequence of PRMT5 (protein arginine methyltransferase 5) (O14744 1-292): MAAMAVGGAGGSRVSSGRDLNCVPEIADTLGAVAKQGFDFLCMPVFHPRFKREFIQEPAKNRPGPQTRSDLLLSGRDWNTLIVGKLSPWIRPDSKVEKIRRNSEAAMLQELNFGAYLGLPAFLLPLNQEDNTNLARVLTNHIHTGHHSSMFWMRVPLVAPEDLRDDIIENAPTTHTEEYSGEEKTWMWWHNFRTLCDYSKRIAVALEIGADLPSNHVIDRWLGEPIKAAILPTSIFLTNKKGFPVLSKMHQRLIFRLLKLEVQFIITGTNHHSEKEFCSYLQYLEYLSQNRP

- Kd: 21.5 µM
Compound: O=C(Cc1csc(-c2ccc(C(F)(F)F)cc2)n1)Nc1ccc2oc(=O)[nH]c2c1 [Z319334062]
